Series [1] is described as follows: McKenzie Beechey Mouse Tail Stimulation Test (analgesic activity). It counts as in vivo. The settings on record: compound active at 16mg/kg. As to the method: The compounds described above were subjected to a Mouse Writhing Test and to the McKenzie Beechey Mouse Tail Stimulation Test (1962, Archives Internationales de Pharmacodynamae et de Therapie, 135) to determine their analgesic activities. The test compounds were prepared as 1.0% solutions in carboxymethylcellulose. The control in all tests was carboxymethylcellulose.

The next series is described as follows: toxicity test (LD50). The conditions noted are these: in vivo, species and route not given.

Here are results for 1 compound from US3931196A, “Phosphinolines and phosphindolines” (Monash University, priority 1972, dated 1976).

Usually LD50 stands for the dose expected to kill half of the subjects tested. High values mean lower toxicity, low ones greater toxicity.

On to `CN(C)CCP1(=S)CCCc2ccccc21` (centres unmarked) [Compound 19, 1-(2-N,N-Dimethylamino)ethyl-1-thio-1,2,3,4-tetrahydrophosphinoline], for which the “activity relative to morphine in the Tail Stimulation Test” value in series [1] is “comparable to morphine”. The compound also showed an LD50 in the series “toxicity test (LD50)” of 170 mg/kg.
